Results taken from US11679107B2 (Eisai R&D Management Co., Ltd., priority 2018, dated 2023).
Read-outs that look alike come from different tables or passages of the source.

Experiments:
[1] = tested on: Panc 05.04 cells (SF3b K700E mutant); experiment: Cell proliferation and viability, CellTiter-Glo, 72 hours; format: cell-based; conditions: for GI50: geometric mean
Procedure, shortened: (§1)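 RPMI-1640/10% FBS (Panc: + insulin, FBS 15%); 11-pt half-log dose, ~10 μM-100 pM, 0.1% DMSO; 37° C, 5% CO2; ATP luminescence read; % inhibition vs T0 and vehicle, −100% cidal to 100% uninhibited growth.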

[2] = tested on: NCI-H1568 cells (high MCL1); experiment: as above; format: cell-based; conditions: for GI50: geometric mean
Procedure, shortened: as §1

[3] = target: T1, SF3b complexes (Homo sapiens, UniProt O75533+Q7RTV0); experiment: Scintillation proximity assay (SPA) with [3H]-labelled pladienolide probe; format: binding; conditions: SF3B1 (WT); geometric mean; read-out: SPA-ATS GMean IC50 (nM) SF3B1 (WT)
T1 construct: endogenous in cells; host or cells: Nuclear extracts; A HeLa S3 extract preparation is described for the in vitro splicing assay
Procedure, shortened: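 SF3b complexes captured from nuclear extracts on anti-SF3B1 antibody SPA beads; test compounds pre-incubated 30 min before 2.5 nM [3H]-pladienolide probe added, then 30 min incubation. Bound probe read by scintillation; values from non-linear regression of concentration–response curves.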

[4] = tested on: Ad2 variant pre-mRNAs spliced in HeLa S3 nuclear extracts; experiment: In vitro splicing assay (IVS), RT-qPCR of spliced product; format: biochemical; conditions: for IC50: geometric mean; for Ratio Ad2.1/2.2: ratio of IVS IC50 Ad2.1 to Ad2.2
Procedure, shortened: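 Read-out is one-step TaqMan RT-qPCR of spliced Ad2 mRNA with Ftz as reference, normalized to DMSO and fit by non-linear regression. Reactions held HeLa S3 nuclear extract, 2 ng Ad2-derived pre-mRNA and test compound, with 15 min preincubation. Splicing was started with ATP-containing activation buffer and run 90 min at 30 °C.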

[5] = PANC0504.1 cells, 72 h, −100% cidal, 0% static, 100% maximal growth
[6] = Panc 05.04, read-out: CTGlo-ATS GMean GI50 (nM) 72 h PANC0504.1, PANC0504.1 cells, 72 h
[7] = NCI-H1568, read-out: CTGlo-ATS GMean GI50 (nM) 72 h NCIH1568.1, NCIH1568.1 cells, 72 h
[8] = NCIH1568.1 cells, 72 h, −100% cidal, 0% static, 100% maximal growth
[9] = Ad2.1 pre-mRNA substrate, read-out: qPCR-IVS-ATS GMean IC50 (nM) Ad2.1
[10] = Ad2.2 pre-mRNA substrate, read-out: qPCR-IVS-ATS GMean IC50 (nM) Ad2.2
[11] = 72 h, PANC0504.1, -100% = cidal, 0% = static, 100% = uninhibited growth
[12] = Panc 05.04, read-out: CTGlo-ATS GMean GI50 (nM) 72 h PANC0504.1, 72 h, PANC0504.1
[13] = 72 h, NCIH1568.1, -100% = cidal, 0% = static, 100% = uninhibited growth
[14] = NCI-H1568, read-out: CTGlo-ATS GMean GI50 (nM) 72 h NCIH1568.1, 72 h, NCIH1568.1
[15] = Panc 05.04, 72 h, read-out: CTGlo-ATS GMean GI50 (nM) 72 h PANC0504.1, PANC0504.1 cells, 72 h
[16] = NCI-H1568, 72 h, read-out: CTGlo-ATS GMean GI50 (nM) 72 h NCIH1568.1, NCIH1568.1 cells, 72 h

GI50 [1, 15] [nM]	GI50 [2, 16] [nM]	Compound	CTGlo-ATS Mean MinResponse % 72 h PANC0504.1 [1, 5] [%]	GI50 [1, 6] [nM]	GI50 [2, 7] [nM]	CTGlo-ATS Mean MinResponse % 72 h NCIH1568.1 [2, 8] [%]	IC50 [3] [nM]	IC50 [4, 9] [nM]	IC50 [4, 10] [nM]	CTGlo-ATS Mean MinResponse % 72 h PANC0504.1 [1, 11] [%]	GI50 [1, 12] [nM]	CTGlo-ATS Mean MinResponse % 72 h NCIH1568.1 [2, 13] [%]	GI50 [2, 14] [nM]	Ratio Ad2.1/2.2 [4]	GI50 ([2]; NCI-H1568, 72 h, read-out: CTGlo-ATS GMean GI50 (nM) 72 h NCIH1568.1, 72 h, NCIH1568.1) [nM]
–	–	C/C(=C\c1cc(F)cc(N2CCCC2=O)c1)[C@H]1OC(=O)C[C@H](O)CC[C@H](C)[C@@H](OC(=O)N2CCN(C)CC2)/C=C/[C@@H]1C [Compound 42]	−86.319	4.76	6.13	−63.030	2.92	330	12.6	–	–	–	–	–	–
–	–	C/C(=C\c1cccc(NS(=O)(=O)C2CC2)c1)[C@H]1OC(=O)C[C@H](O)CC[C@H](C)[C@@H](OC(=O)N2CCN(C)CC2)/C=C/[C@@H]1C [Compound 216, [(2S,3S,4E,6R,7S,10R)-2-[(E)-1-[3-(cyclopropylsulfonylamino)phenyl]prop-1-en-2-yl]-10-hydroxy-3,7-dimethyl-12-oxo-1-oxacyclododec-4-en-6-yl] 4-methylpiperazine-1-carboxylate]	–	–	–	–	3.32	11100	35.7	−85.005	29	−32.014	47.2	309.648	–
–	–	C/C(=C\c1cc(F)cc(N2CCOCC2)c1)[C@H]1OC(=O)C[C@H](O)CC[C@H](C)[C@@H](OC(=O)N(C)C2CCN(C)CC2)/C=C/[C@@H]1C [Compound 22]	−84.195	11.6	12.8	−69.453	5.76	876	38.8	–	–	–	–	–	–
–	–	C/C(=C\c1cc(Cl)cc(Cl)c1)[C@H]1OC(=O)C[C@H](O)CC[C@H](C)[C@@H](OC(=O)N2CCN(C)CC2)/C=C/[C@@H]1C [Compound 48]	−89.415	95.2	121	−38.837	11.3	> 25000	188	–	–	–	–	–	–
–	–	C/C(=C\c1cccc(S(=O)(=O)N2CCC(F)(F)C2)c1)[C@H]1OC(=O)C[C@H](O)CC[C@H](C)[C@@H](OC(=O)N2CCN(C)CC2)/C=C/[C@@H]1C [Compound 204, [(2S,3S,4E,6R,7S,10R)-2-[(E)-1-[3-(3,3-difluoropyrrolidin-1-yl)sulfonylphenyl]prop-1-en-2-yl]-10-hydroxy-3,7-dimethyl-12-oxo-1-oxacyclododec-4-en-6-yl] 4-methylpiperazine-1-carboxylate]	–	–	–	–	23.5	–	–	−94.081	82	−24.924	81.9	–	–
13.9	12.8	C/C(=C\c1cc(F)cc(N2CCN(S(=O)(=O)c3cnn(C)c3)CC2)c1)[C@H]1OC(=O)C[C@H](O)CC[C@H](C)[C@@H](OC(=O)N2CCN(C)CC2)/C=C/[C@@H]1C [Compound 111]	−71.803	–	–	−81.303	28	–	–	–	–	–	–	–	–
–	–	C/C(=C\c1cccc(COC(=O)N2CCC3(COC3)C2)c1)[C@H]1OC(=O)C[C@H](O)CC[C@H](C)[C@@H](OC(=O)N2CCN(C)CC2)/C=C/[C@@H]1C [Compound 255, [3-[(E)-2-[(2S,3S,4E,6R,7S,10R)-10-hydroxy-3,7-dimethyl-6-(4-methylpiperazine-1-carbonyl)oxy-12-oxo-1-oxacyclododec-4-en-2-yl]prop-1-enyl]phenyl]methyl 2-oxa-7-azaspiro[3.4]octane-7-carboxylate]	–	–	–	–	7.32	–	–	−61.401	65.8	−24.942	67.6	–	–
5.85	6.95	COCCN1CCN(c2cc(F)cc(/C=C(\C)[C@H]3OC(=O)C[C@H](O)CC[C@H](C)[C@@H](OC(=O)N4CCN(C)CC4)/C=C/[C@@H]3C)c2)CC1=O [Compound 105]	−90.949	–	–	−68.464	2.87	–	–	–	–	–	–	–	–
–	–	C/C(=C\c1cc(F)cc(Cl)c1)[C@H]1OC(=O)C[C@H](O)CC[C@H](C)[C@@H](OC(=O)N2CCN(C)CC2)/C=C/[C@@H]1C [Compound 167]	−85.316	34.1	52.4	−70.414	3.19	–	–	–	–	–	–	–	–
–	–	C/C(=C\C1=CCCN(C(=O)OC(C)(C)C)C1)[C@H]1OC(=O)C[C@H](O)CC[C@H](C)[C@@H](OC(=O)N2CCN(C)CC2)/C=C/[C@@H]1C [Compound 219, [(2S,3S,4E,6R,7S,10R)-10-hydroxy-3,7-dimethyl-2-[(E)-1-[1-[(2-methylpropan-2-yl)oxycarbonyl]-3,6-dihydro-2H-pyridin-5-yl]prop-1-en-2-yl]-12-oxo-1-oxacyclododec-4-en-6-yl] 4-methylpiperazine-1-carboxylate]	–	–	–	–	7.96	–	–	−91.460	24.6	−42.617	42.4	–	–
–	–	C/C(=C\c1cc(F)cc(N2CCN(S(=O)(=O)c3cccnc3)CC2)c1)[C@H]1OC(=O)C[C@H](O)CC[C@H](C)[C@@H](OC(=O)N2CCN(C)CC2)/C=C/[C@@H]1C [Compound 112]	−80.066	8.29	6.23	−86.973	12.8	–	–	–	–	–	–	–	–
–	–	C/C(=C\c1cc(F)cc(N2CCN(S(=O)(=O)c3cn(C)cn3)CC2)c1)[C@H]1OC(=O)C[C@H](O)CC[C@H](C)[C@@H](OC(=O)N2CCN(C)CC2)/C=C/[C@@H]1C [Compound 113]	−80.966	49	41.8	−73.107	8.2	–	–	–	–	–	–	–	–
–	–	C/C(=C\c1cc(F)cc(N2CCN(C(=O)Cn3cccn3)CC2)c1)[C@H]1OC(=O)C[C@H](O)CC[C@H](C)[C@@H](OC(=O)N2CCN(Cc3cccnc3)CC2)/C=C/[C@@H]1C [Compound 252, [(2S,3S,4E,6R,7S,10R)-2-[(E)-1-[3-fluoro-5-[4-(2-pyrazol-1-ylacetyl)piperazin-1-yl]phenyl]prop-1-en-2-yl]-10-hydroxy-3,7-dimethyl-12-oxo-1-oxacyclododec-4-en-6-yl] 4-(pyridin-3-ylmethyl)piperazine-1-carboxylate]	–	–	–	–	21.8	22.6	27.4	–	–	−76.109	–	0.825	10.3
–	–	C/C(=C\c1cc(F)cc(N2CCN(C(=O)Cn3cccn3)CC2)c1)[C@H]1OC(=O)C[C@H](O)CC[C@H](C)[C@@H](OC(=O)N2CCNC(=O)C2)/C=C/[C@@H]1C [Compound 230, [(2S,3S,4E,6R,7S,10R)-2-[(E)-1-[3-fluoro-5-[4-(2-pyrazol-1-ylacetyl)piperazin-1-yl]phenyl]prop-1-en-2-yl]-10-hydroxy-3,7-dimethyl-12-oxo-1-oxacyclododec-4-en-6-yl] 3-oxopiperazine-1-carboxylate]	–	–	–	–	12.9	11.7	10.9	–	–	−69.108	15.9	1.078	–
–	–	C/C(=C\c1cc(F)cc(N(C)CC2CCN(S(C)(=O)=O)CC2)c1)[C@H]1OC(=O)C[C@H](O)CC[C@H](C)[C@@H](OC(=O)N2CCN(C)CC2)/C=C/[C@@H]1C [Compound 187]	–	–	65	−54.197	43.2	157	59.6	–	–	–	–	–	–
